Data as given in patent US7642280B2, “Inhibitors of acyl glucosaminyl inositol amidase and methods of use” (The Regents of the University of California, priority 2001, dated 2010).
Like-named read-outs stand apart in the source and are kept apart here.

Assays:
[1] = biological target: Mycobacterium smegmatis mycothiol-S-conjugate amidase (MCA) (Mycolicibacterium smegmatis, UniProt A0R2W9); assay: Fluorescence-based HPLC IC50 assay, wild type M. smegmatis MCA with natural MSmB; type: biochemical
Sequence of Mycobacterium smegmatis mycothiol-S-conjugate amidase (MCA) (A0R2W9 whole entry): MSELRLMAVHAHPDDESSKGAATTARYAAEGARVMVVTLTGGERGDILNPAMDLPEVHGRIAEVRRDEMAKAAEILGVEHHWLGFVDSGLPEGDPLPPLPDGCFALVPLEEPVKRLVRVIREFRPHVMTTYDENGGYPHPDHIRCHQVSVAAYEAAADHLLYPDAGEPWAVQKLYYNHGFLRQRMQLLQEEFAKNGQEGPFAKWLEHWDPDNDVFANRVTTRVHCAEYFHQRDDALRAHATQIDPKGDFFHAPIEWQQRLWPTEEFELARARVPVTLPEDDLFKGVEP

M. tuberculosis MCA = M. tuberculosis MCA (Mycobacterium tuberculosis, UniProt P9WJN1); assay: biochemical
Sequence of M. tuberculosis MCA (P9WJN1 whole entry): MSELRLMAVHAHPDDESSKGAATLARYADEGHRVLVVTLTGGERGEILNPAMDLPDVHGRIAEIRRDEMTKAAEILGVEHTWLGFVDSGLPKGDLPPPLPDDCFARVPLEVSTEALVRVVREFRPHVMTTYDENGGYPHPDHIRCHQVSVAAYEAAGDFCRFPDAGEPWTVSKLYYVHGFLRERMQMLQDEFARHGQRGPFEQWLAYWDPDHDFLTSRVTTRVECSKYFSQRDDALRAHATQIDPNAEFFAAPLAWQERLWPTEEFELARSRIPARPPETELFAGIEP

[2] = biological target: mycothiol S-conjugate amidase (MCA) (Mycolicibacterium smegmatis, UniProt A0R2W9); assay: Fluorescence-detected HPLC assay of MCA cleavage of MSmB (50 μM MSmB as substrate), Examples 1 and 3; type: biochemical
Sequence of mycothiol S-conjugate amidase (MCA) (A0R2W9 whole entry): as the sequence (A0R2W9 whole entry) above

[3] = recombinant M. tuberculosis MCA approx. 20 nM, 30 μM synthetic MSmB, 20 min, 31° C., read-out: IC50 M. tb
[4] = wild type M. smegmatis MCA approx. 20 nM, 30 μM natural MSmB, 20 min, 31° C., read-out: IC50 M. smeg
[5] = 50 μM MSmB as substrate, read-out: concentration that inhibited mycothiol S-conjugate amidase by 50%

COC1=C(Br)[C@@H](O)[C@]2(C=C1Br)CC(C(=O)NCCc1[nH]c(N)nc1-c1cc(O)c3ncc(O)c(O)c3c1O)=NO2 [Compound 1]
IC50 [1]: 2 µM | IC50 (M. tuberculosis MCA; [3]): 3 µM | IC50 [2]: 2 µM

COC1=C(Br)[C@@H](O)[C@]2(C=C1Br)CC(C(=O)NCCc1cnc(N)[nH]1)=NO2 [Compound 2, Pseudoceratine]
IC50 [1, 4]: 100 µM | IC50 (M. tuberculosis MCA; [3]): 100 µM | IC50 [2, 5]: 100 µM

COC1=C(Br)C[C@]2(OC=C1Br)ON=C(C(=O)NCCCOc1c(Br)cc(C(O)CN)cc1Br)[C@@H]2O (stereo partly shown) [Compound 4, psammaplysin B]
IC50 [1, 4]: 20 µM | IC50 (M. tuberculosis MCA; [3]): 30 µM | IC50 [2, 5]: 3 µM

CN1C(=O)[C@]23CC4=CC=C[C@H](O)[C@H]4N2C(=O)[C@@]1(CO)SS3 [Compound 12, Gliotoxin]
IC50 [1, 4]: 30 µM | IC50 (M. tuberculosis MCA): 30 µM

CS[C@]1(CO)C(=O)N2[C@H]3C(=CC=C[C@@H]3O)C[C@@]2(SC)C(=O)N1C [Compound 13, S,S-dimethyl gliotoxin]
IC50 [1, 4]: 280 µM

COc1cc(O)c2c(c1)C(=O)c1cc(C)cc(O)c1C2=O [Compound 14, Physcion]
IC50 [1, 4]: 50 µM

O=c1c(O)c[nH]c2c(O)ccc(O)c12 [uranidine, reference compound]
inhibitory activity against MCA (in words) ([2]; 50 μM MSmB as substrate, absence of cleavage product AcCys-bimane): ineffective

Oceanapiside [Compound 7]
IC50 [1, 4]: 0.5 µM | IC50 (M. tuberculosis MCA; [3]): 10 µM | IC50 ([2]; 50 μM MSmB as substrate, read-out: IC50 amidase inhibition (Example 3, FIG. 6)): 5 µM

Suvanine [Compound 10]
IC50 [1, 4]: 60 µM

halisulfate 1 [Compound 11]
IC50 [1, 4]: 40 µM

oceanapiside aglycon [Compound 8]
IC50 (M. tuberculosis MCA; [3]): 20 µM

psammaplysin A [Compound 3]
IC50 [1, 4]: 30 µM | IC50 (M. tuberculosis MCA; [3]): 30 µM
